Data: US9994628B2, “Peptides and combination of peptides for use in immunotherapy against various tumors” (IMMATICS BIOTECHNOLOGIES GMBH, priority 2015, dated 2018)

Legend:
CD8+ T cells = assay: In vitro T-cell priming assay with aAPCs loaded with peptide/MHC complexes and anti-CD28 antibody, pMHC multimer readout; format: cell-based, human; conditions: for Wells positive [%]: percentage of positive wells among evaluable, HLA-A*02 restricted peptides; for donors (in vitro immunogenicity): positive donors; for donors (in vitro immunogenicity) / wells (in vitro immunogenicity): healthy HLA-A*02 donors, three stimulation cycles; for wells (in vitro immunogenicity): positive wells
Excerpt: In order to obtain information regarding the immunogenicity of the TUMAPs of the present invention, the inventors performed investigations using an in vitro T-cell priming assay based on repeated stimulations of CD8+ T cells with artificial antigen presenting cells (aAPCs) loaded with peptide/MHC complexes and anti-CD28 antibody.
In order to perform in vitro stimulations by artificial antigen presenting cells loaded with peptide-MHC complex (pMHC) and anti-CD28 antibody, the inventors first isolated CD8+ T cells from fresh HLA-A*02 leukapheresis products via positive selection using CD8 microbeads (Miltenyi Biotec, Bergisch-Gladbach, Germany) of healthy donors obtained from the University clinics Mannheim, Germany, after informed consent. PBMCs and isolated CD8+ lymphocytes were incubated in T-cell medium (TCM) until use consisting of RPMI-Glutamax (Invitrogen, Karlsruhe, Germany) supplemented with 10% heat inactivated human AB serum (PAN-Biotech, Aidenbach, Germany), 100 U/ml Penicillin/100 μg/ml Streptomycin (Cambrex, Cologne, Germany), 1 mM sodium pyruvate (CC Pro, Oberdorla, Germany), 20 μg/ml Gentamycin (Cambrex). 2.5 ng/ml IL-7 (PromoCell, Heidelberg, Germany) and 10 U/ml IL-2 (Novartis Pharma, Nümberg, Germany) were also added to the TCM at this step. Generation of pMHC/anti-CD28 coated beads, T-cell stimulations and readout was performed in a highly defined in vitro system using four different pMHC molecules per stimulation condition and 8 different pMHC molecules per readout condition.
The purified co-stimulatory mouse IgG2a anti human CD28 Ab 9.3 (Jung et al., 1987) was chemically biotinylated using Sulfo-N-hydroxysuccinimidobiotin as recommended by the manufacturer (Perbio, Bonn, Germany). Beads used were 5.6 μm diameter streptavidin coated polystyrene particles (Bangs Laboratories, Illinois, USA).
pMHC used for positive and negative control stimulations were A*0201/MLA-001 (peptide […] (SEQ ID NO. 289) from modified Melan-A/MART-1) and A*0201/DDX5-001 ([…] from DDX5, SEQ ID NO. 290), respectively.
800.000 beads/200 μl were coated in 96-well plates in the presence of 4×12.5 ng different biotin-pMHC, washed and 600 ng biotin anti-CD28 were added subsequently in a volume of 200 μl. Stimulations were initiated in 96-well plates by co-incubating […] CD8+ T cells with 2×10^5 washed coated beads in 200 μl TCM supplemented with 5 ng/ml IL-12 (PromoCell) for 3 days at 37° C. Half of the medium was then exchanged by fresh TCM supplemented with 80 U/ml IL-2 and incubating was continued for 4 days at 37° C. This stimulation cycle was performed for a total of three times. For the pMHC multimer readout using 8 different pMHC molecules per condition, a two-dimensional combinatorial coding approach was used as previously described (Andersen et al., 2012) with minor modifications encompassing coupling to 5 different fluorochromes. Finally, multimeric analyses were performed by staining the cells with Live/dead near IR dye (Invitrogen, Karlsruhe, Germany), CD8-FITC antibody clone SK1 (BD, Heidelberg, Germany) and fluorescent pMHC multimers. For analysis, a BD LSRII SORP cytometer equipped with appropriate lasers and filters was used. Peptide specific cells were calculated as percentage of total CD8+ cells. Evaluation of multimeric analysis was done using the FlowJo software (Tree Star, Oregon, USA). In vitro priming of specific multimer+ CD8+ lymphocytes was detected by comparing to negative control stimulations.

HLA-A*02:01 = HLA-A*02:01 (Homo sapiens, UniProt P04439, D140Y/D185E/D98H/E176V/E277Q/G131W/G231S/I119V/I121R/I166T/I218V/L300P/L318F/N151K/N90K/P208A/P217A/Q86G/Q94H/R138H/R169H/T345S); assay: MHC binding assay: UV-ligand exchange and β2m ELISA (peptide exchange yield, Table 7); conditions: binding of HLA-class I restricted peptides to HLA-A*02:01, UV-ligand exchange
In short: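 Peptide-MHC complexes made by UV-mediated exchange of a cleavable ligand for test peptide; exchange yield measured by ELISA detecting β2m of stabilized complexes captured on streptavidin, using refolded HLA-A*02:01/MLA-001 monomer standards (15-500 ng/ml). Samples diluted 100-fold; HRP anti-β2m, TMB, absorbance 450 nm.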

Row | Substance | Peptide exchange (MHC class I binding score, peptide exchange yield) (HLA-A*02:01) | Wells positive [%] (CD8+ T cells) | donors (in vitro immunogenicity) (CD8+ T cells) | wells (in vitro immunogenicity) (CD8+ T cells)
1 | 34 (TLNTLDINL; listed as Homo sapiens) [compound 34] | +++ (≥50% = +++) | ++++ (>=70% = ++++) | – | –
2 | 39 (YLEDGFAYV; listed as Homo sapiens) [compound 39] | +++ (≥50% = +++) | ++++ (>=70% = ++++) | – | –
3 | 283 (ALSELLQQV; listed as Homo sapiens) [compound 283] | +++ (≥50% = +++) | – | – | –
4 | 287 (KIQEILTQV; listed as Homo sapiens) [compound 287] | – | – | +++ (50%-69% = +++) | + (<20% = +)
5 | 288 (SLYKGLLSV; listed as Homo sapiens) [compound 288] | – | – | ++++ (>=70% = ++++) | ++ (21%-49% = ++)

Continued, in another order:

Row | Peptide exchange (MHC class I binding score, peptide exchange yield) (HLA-A*02:01) | Substance | Wells positive [%] (CD8+ T cells) | donors (in vitro immunogenicity) (CD8+ T cells) | wells (in vitro immunogenicity) (CD8+ T cells)
6 | ++ (≥20% = ++) | 284 (KLMDPGSLPPL; listed as Homo sapiens) [compound 284] | – | – | –
7 | +++ (≥50% = +++) | 285 (MLLDTVQKV; listed as Homo sapiens) [compound 285] | – | – | –
8 | +++ (≥50% = +++) | 286 (FLTEMVHFI; listed as Homo sapiens) [compound 286] | – | – | –
